The values below come from patent publication US11591323B2, “Muscarinic agonists as non-steroidal and non-opioid analgesics and methods of use thereof” (Barry University, priority 2019, dated 2023).

The target of one test is T1, M4 muscarinic receptor (Homo sapiens, UniProt P08173).
T1 sequence (P08173 1-479): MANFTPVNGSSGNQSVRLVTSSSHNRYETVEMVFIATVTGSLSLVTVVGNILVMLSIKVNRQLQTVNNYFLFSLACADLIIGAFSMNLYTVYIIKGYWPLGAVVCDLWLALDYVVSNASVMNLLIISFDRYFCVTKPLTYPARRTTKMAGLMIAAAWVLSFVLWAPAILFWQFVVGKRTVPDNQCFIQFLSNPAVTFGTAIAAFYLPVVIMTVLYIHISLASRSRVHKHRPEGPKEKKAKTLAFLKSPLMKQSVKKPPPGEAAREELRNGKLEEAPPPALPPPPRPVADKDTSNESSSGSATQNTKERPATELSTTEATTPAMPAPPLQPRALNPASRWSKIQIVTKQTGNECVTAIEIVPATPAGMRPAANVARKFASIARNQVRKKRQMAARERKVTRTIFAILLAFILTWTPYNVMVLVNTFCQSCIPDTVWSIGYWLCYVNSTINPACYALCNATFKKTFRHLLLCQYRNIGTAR
The experiment in a line: accumulation of cAMP at PTX-treated CHO cells expressing M4. To be noted: forskolin-stimulated and basal, in words. More on the design: host or cells: CHO cells, stably transfected. In kind it is cell-based. How it is done: To exclude the possibility that activation of the non-preferential Gs pathway was obscured by activation of the preferential Gi/o pathway, accumulation of cAMP was measured in CHO cells expressing M2 or M4 receptors where Gi/o G-proteins were inactivated by pertussis toxin (PTX) treatment (FIG. 4).
Cell culture and membrane preparation: Chinese hamster ovary (CHO) cells stably transfected with the genes of individual human variants of muscarinic receptors were purchased from Missouri S&T cDNA Resource Center (Rolla, Mo., USA). Fresh primary cell culture of smooth muscle cells (SMC) from rat aorta prepared as previously described was kindly provided by Dr. Lucie Bačáková. Primary culture of SMCs was grown to confluency in 75 cm^2 flasks in Dulbecco's modified Eagle's medium supplemented with 10% fetal bovine serum. Up to 6-times, 2 million of cells were sub-cultured. […]
(§1) Measurements of the production of cAMP and inositol phosphates: Levels of second messengers cAMP and inositol phosphates were determined in radiochemical chromatography assays as described previously. […] Samples were applied to alumina columns (1.5 g of alumina per column), washed with 2 ml ammonium acetate (pH=7.0) and eluted from columns with 4 ml ammonium acetate and measured by liquid scintillation spectrometry. […] After separation of water and organic phases, 0.6 ml of water phase was applied to Dowex columns (1.5 g of Dowex per column), washed by 20 ml of 60 mM ammonium formate/5 mM sodium borate buffer and eluted from columns with 4 ml of 1M ammonium formate/0.1 formic acid buffer and measured by liquid scintillation spectrometry.
To exclude the possibility that activation of the non-preferential […] pathway was obscured by activation of the preferential Gi/o pathway, accumulation of cAMP was measured in CHO cells expressing M2 or M4 receptors where Gi/o G-proteins were inactivated by pertussis toxin (PTX) treatment (FIG. 11). […]

Test [1] concerns submaxillary gland (rich in M3). Description: accumulation of IPX in dissipated rat submaxillary gland. Format: cell-based. The conditions noted are these: in words. How it is done:
Effects of compounds 6A and 7A were then measured ex vivo in dissipated rat tissues (FIG. 5). Accumulation of IPX was measured in dissipated brain cortex (rich in M1 & M3), submaxillary gland (M1 & M3), and ventral tegmental area (M5). Native tissues express about 10-times less muscarinic receptors than CHO cell lines. Accumulation of cAMP was measured in cerebellum (M2) and striatum (M4).
Rat dissipated tissues: Suspension of dissipated tissues from rat brain cortex, cerebellum, striatum, ventral tegmental area (VTA) and submaxillary glands was prepared as described previously in supplementary methods. Adult 8-weeks old male Wistar rats were scarified by cervical dislocation in accordance with current legislative and guidelines under permission of Czech Ministry of Agriculture 16OZ23113/2017-17214. Tissues were dissected immediately. Submaxillary glands were minced by scissors. Tissues were dispersed by incubation for 15 min at 37° C. in KHB supplemented with trypsin and trituration every 5 min. Large undissipated parts were removed by cell mesh. […]
as §1
To exclude the possibility that the observed effects of compounds 6A and 7A are the result of overexpression in the heterologous system, functional response to the compounds was measured ex vivo in dissipated native rat tissues. […] Accumulation of cAMP was measured in M2-rich cerebellum and M4-rich striatum.

Molecules are shown by their SMILES.

For the compound `C1=CCN(Cc2cccs2)CC1.Cl` [Compound 6A, 1-[(thiophen-2-yl)methyl]-1,2,3,6-tetrahydropyridin-1-ium chloride], the “change in accumulation of cAMP” value on M4 muscarinic receptor is “did not change cAMP levels”. Besides, in test [1], the “accumulation of IPX” value is listed as “no increase in IPX levels”.

On to `C[N+]1(Cc2cccs2)CC=CCC1.[I-]` (stereo not drawn) [Compound 7A, 1-methyl-1-[(thiophen-2-yl)methyl]-1,2,3,6-tetrahydropyridin-1-ium iodide], for which the “change in accumulation of cAMP” value at M4 muscarinic receptor is “did not change cAMP levels”. Besides, in test [1], the “accumulation of IPX” value was “no increase in IPX levels”.

Take `C[N+](C)(C)CCOC(N)=O` [carbachol, reference compound]: the “change in accumulation of cAMP” value on M4 muscarinic receptor is on record as “about two-fold increase”. For the same compound, the “accumulation of IPX” value in test [1] is recorded as “profound accumulation of IPX”.
